Data from US20070275988A1, “Transition state structure and inhibitors of thymidine phosphorylases” (priority 2003, published 2007).

Legend:
[1] = FUra versus FdUrd; cited from earlier work
[2] = tested on: angiogenesis; details: cited from earlier work
[3] = substrate: O=c1[nH]c(=O)n([C@H]2C[C@H](O)[C@@H](CO)O2)cc1[N+](=O)[O-]; assay: UV-Vis spectrophotometric thymidine phosphorylase assay with 5NdU as substrate; format: biochemical; details: other: substrate, pH 6.01
Description: Binding constants were determined by UV-Vis spectrophotometery using 2′-deoxy-5-nitrouridine (5NdU) as the substrate (Km=50 μM at pH 6.01). The reaction mixture consisted of inhibitor (approximately 1/10×Ki to 10×Ki), 50 mM MES (pH 6.01), 150 mM NaCl, 1 mM EDTA, 5 mM inorganic phosphate, and 250 μM 5NdU in a total of 1 ml. Thymidine phosphorylase was added to approximately 10 nM (1 nM enzyme was used for D723333-P) and the reaction was monitored at λ=347 nm for 30 min. At least five concentrations of inhibitor were used for each compound and experiments were repeated in triplicate. Initial rates were determined by a linear least-squares fit. The Ki for each compound was then determined using the following equation: [formula] where ν is the rate of reaction and V is the maximal rate in the absence of inhibitor.

O=c1[nH]cc(F)c(=O)[nH]1 [FUra, 5-fluorouracil]
fold less potent than FdUrd [1]: 100 to 1000 fold

N=C1CCCN1Cc1[nH]c(=O)[nH]c(=O)c1Cl [TPI]
antiangiogenic activity in vivo [2]: some antiangiogenic activity in vivo

B1: Thymidine phosphorylase (Homo sapiens) (protein)
chain: APPAPGDFSGEGSQGLPDPSPEPKQLPELIRMKRDGGRLSEADIRGFVAAVVNGSAQGAQIGAMLMAIRLRGMDLEETSVLTQALAQSGQQLEWPEAWRQQLVDKHSTGGVGDKVSLVLAPALAACGCKVPMISGRGLGHTGGTLDKLESIPGFNVIQSPEQMQVLLDQAGCCIVGQSEQLVPADGILYAARDVTATVDSLPLITASILSKKLVEGLSALVVDVKFGGAAVFPNQEQARELAKTLVGVGASLGLRVAAALTAMDKPLGRCVGHALEVEEALLCMDGAGPPDLRDLVTTLGGALLWLSGHAGTQAQGAARVAAALDDGSALGRFERMLAAQGVDPGLARALCSGSPAERRQLLPRAREQEELLAPADGTVELVRALPLALVLHELGAGRSRAGEPLRLGVGAELLVDVGQRLRRGTPWLRVHRDGPALSGPQSRALQEALVLSDRAPFAAPSPFAELVLPPQQ
Km [3]: 50 µM
